Five molecules from article PMC12586182 (Frontiers in Oncology, 2025) can be followed below.

A value given as a limit tells only on which side of the number the result lay.

Assay in all cases: Kinase panel profiling at 1 µmol/L (mobility shift assay, Carna)
One assay has as its target T1, ACK (Homo sapiens, UniProt Q07912).
T1 construct: purchased Carna Biosciences
Type of assay: biochemical. The conditions noted are these: 1 µmol/L of BTK inhibitor.

In another assay the target is T2, EPHB3 (Homo sapiens, UniProt P54753).
T2 construct: purchased Carna Biosciences
T2 sequence (P54753 34-998): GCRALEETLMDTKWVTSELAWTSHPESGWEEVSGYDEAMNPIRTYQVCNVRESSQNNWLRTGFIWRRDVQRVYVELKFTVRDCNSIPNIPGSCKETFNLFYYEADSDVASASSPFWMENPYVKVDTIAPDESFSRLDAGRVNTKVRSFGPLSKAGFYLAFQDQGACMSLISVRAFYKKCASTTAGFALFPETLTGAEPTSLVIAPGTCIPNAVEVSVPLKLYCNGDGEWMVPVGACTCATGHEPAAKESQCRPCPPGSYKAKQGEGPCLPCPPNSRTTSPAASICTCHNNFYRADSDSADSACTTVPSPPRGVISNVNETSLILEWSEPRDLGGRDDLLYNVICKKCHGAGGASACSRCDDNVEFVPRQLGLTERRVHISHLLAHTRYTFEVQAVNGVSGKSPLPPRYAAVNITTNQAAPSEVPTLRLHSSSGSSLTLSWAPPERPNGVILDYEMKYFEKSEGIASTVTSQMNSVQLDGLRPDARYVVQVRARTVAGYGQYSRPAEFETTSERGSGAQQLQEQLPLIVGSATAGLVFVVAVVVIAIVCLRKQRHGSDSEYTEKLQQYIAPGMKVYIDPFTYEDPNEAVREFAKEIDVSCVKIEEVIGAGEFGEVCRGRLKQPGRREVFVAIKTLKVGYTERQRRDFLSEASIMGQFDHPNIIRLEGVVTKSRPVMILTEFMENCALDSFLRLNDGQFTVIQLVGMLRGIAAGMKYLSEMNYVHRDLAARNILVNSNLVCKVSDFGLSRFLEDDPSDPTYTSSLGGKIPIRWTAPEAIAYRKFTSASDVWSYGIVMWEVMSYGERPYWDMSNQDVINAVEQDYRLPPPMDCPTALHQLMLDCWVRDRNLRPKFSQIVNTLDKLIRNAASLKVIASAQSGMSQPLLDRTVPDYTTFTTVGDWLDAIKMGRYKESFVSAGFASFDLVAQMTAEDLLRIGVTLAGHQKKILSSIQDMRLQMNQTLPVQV
It counts as biochemical. Conditions: 1 µmol/L of BTK inhibitor.

The target in a further assay is T3, FLT4 (Homo sapiens, UniProt P35916).
T3 construct: purchased Carna Biosciences
It counts as biochemical. The conditions noted are these: 1 µmol/L of BTK inhibitor.

For another assay, the target named is T4, BRSK2 (Homo sapiens, UniProt Q8IWQ3).
T4 construct: purchased Carna Biosciences
T4 sequence (Q8IWQ3 1-736): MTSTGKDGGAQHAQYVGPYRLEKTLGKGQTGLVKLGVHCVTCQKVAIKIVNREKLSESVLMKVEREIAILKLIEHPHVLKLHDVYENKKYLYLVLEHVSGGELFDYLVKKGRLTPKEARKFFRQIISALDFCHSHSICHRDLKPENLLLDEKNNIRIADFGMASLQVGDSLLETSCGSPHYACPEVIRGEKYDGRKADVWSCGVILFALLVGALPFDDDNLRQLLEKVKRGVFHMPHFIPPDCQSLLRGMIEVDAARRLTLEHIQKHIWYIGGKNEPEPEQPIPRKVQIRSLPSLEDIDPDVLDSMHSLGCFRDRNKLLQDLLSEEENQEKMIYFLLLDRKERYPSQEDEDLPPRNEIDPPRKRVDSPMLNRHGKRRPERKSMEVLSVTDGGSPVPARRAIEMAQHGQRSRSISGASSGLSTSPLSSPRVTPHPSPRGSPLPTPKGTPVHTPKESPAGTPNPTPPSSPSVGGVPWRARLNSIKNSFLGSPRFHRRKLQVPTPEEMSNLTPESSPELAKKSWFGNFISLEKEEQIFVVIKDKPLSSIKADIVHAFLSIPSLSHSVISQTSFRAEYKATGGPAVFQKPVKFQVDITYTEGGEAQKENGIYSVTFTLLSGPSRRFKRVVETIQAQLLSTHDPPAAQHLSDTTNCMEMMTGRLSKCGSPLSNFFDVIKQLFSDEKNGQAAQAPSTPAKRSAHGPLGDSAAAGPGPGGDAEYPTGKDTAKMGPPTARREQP
Type of assay: biochemical. Conditions: 1 µmol/L of BTK inhibitor.

Another assay concerns the target T5, DYRK3 (Homo sapiens, UniProt O43781).
T5 construct: purchased Carna Biosciences
T5 sequence (O43781 1-588): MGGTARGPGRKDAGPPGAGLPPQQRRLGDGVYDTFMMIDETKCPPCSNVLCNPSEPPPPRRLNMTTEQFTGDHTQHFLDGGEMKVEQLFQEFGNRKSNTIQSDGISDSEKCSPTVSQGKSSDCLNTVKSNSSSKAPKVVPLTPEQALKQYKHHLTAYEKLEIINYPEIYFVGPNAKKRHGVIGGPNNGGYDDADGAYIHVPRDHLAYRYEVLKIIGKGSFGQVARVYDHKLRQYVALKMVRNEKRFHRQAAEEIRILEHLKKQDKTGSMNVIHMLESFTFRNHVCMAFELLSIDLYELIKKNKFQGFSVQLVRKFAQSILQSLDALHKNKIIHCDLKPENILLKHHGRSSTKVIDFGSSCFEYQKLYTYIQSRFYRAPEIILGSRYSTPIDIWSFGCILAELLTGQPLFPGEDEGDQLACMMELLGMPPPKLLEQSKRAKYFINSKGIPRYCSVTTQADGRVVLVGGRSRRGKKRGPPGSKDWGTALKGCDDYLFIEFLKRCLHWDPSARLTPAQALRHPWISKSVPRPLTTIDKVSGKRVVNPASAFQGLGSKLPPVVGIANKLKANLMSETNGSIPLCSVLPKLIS
Type of assay: biochemical. The conditions noted are these: 1 µmol/L of BTK inhibitor.

A further assay addresses T6, p38δ (Homo sapiens, UniProt O15264).
T6 construct: purchased Carna Biosciences
T6 sequence (O15264 1-365): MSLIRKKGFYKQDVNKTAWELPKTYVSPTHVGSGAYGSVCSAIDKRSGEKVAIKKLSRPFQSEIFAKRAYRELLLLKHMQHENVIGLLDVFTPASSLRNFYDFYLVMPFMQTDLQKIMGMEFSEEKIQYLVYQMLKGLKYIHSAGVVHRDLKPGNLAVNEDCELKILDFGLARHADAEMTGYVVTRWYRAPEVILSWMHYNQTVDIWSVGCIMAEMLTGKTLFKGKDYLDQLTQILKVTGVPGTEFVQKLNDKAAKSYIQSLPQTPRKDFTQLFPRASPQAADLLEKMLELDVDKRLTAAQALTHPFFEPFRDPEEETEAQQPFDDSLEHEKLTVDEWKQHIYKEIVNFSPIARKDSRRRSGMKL
It counts as biochemical. The conditions noted are these: 1 µmol/L of BTK inhibitor.

A further assay deals with EGFR (Homo sapiens, UniProt P00533). The conditions noted are these: for Percentage inhibition of kinase enzyme activity: EGFR, 1 µmol/L of BTK inhibitor.
Sequence of EGFR (P00533 25-1210): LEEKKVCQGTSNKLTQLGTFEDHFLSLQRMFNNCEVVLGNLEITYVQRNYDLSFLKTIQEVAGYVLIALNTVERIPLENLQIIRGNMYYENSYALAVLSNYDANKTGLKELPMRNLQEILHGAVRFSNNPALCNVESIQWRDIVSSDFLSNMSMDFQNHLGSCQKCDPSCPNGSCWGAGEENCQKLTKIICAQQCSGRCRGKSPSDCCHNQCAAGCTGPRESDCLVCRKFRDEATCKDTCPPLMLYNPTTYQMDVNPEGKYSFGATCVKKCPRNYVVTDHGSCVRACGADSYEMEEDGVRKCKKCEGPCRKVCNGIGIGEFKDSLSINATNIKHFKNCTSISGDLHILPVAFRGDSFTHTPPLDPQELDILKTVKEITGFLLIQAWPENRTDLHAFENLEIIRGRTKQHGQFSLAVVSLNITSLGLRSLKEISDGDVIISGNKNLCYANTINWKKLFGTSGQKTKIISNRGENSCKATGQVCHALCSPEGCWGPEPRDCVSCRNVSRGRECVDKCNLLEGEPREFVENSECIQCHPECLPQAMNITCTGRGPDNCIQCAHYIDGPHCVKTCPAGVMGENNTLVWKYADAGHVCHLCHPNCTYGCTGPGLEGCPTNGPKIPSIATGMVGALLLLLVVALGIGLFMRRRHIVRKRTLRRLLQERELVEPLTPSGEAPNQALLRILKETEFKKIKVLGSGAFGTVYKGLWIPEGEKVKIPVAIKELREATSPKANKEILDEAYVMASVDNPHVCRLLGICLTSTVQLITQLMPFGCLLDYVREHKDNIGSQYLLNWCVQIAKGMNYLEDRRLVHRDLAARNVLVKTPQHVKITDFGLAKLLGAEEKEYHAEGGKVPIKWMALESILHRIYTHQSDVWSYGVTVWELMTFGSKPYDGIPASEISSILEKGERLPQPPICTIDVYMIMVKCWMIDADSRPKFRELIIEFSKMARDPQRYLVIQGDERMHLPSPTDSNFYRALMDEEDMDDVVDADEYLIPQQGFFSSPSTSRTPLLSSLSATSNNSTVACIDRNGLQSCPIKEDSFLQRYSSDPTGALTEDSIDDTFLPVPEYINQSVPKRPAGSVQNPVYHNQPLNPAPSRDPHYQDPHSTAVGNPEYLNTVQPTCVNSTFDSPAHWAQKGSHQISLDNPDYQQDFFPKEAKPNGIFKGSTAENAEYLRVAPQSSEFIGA

T3 sequence (P35916 25-1363): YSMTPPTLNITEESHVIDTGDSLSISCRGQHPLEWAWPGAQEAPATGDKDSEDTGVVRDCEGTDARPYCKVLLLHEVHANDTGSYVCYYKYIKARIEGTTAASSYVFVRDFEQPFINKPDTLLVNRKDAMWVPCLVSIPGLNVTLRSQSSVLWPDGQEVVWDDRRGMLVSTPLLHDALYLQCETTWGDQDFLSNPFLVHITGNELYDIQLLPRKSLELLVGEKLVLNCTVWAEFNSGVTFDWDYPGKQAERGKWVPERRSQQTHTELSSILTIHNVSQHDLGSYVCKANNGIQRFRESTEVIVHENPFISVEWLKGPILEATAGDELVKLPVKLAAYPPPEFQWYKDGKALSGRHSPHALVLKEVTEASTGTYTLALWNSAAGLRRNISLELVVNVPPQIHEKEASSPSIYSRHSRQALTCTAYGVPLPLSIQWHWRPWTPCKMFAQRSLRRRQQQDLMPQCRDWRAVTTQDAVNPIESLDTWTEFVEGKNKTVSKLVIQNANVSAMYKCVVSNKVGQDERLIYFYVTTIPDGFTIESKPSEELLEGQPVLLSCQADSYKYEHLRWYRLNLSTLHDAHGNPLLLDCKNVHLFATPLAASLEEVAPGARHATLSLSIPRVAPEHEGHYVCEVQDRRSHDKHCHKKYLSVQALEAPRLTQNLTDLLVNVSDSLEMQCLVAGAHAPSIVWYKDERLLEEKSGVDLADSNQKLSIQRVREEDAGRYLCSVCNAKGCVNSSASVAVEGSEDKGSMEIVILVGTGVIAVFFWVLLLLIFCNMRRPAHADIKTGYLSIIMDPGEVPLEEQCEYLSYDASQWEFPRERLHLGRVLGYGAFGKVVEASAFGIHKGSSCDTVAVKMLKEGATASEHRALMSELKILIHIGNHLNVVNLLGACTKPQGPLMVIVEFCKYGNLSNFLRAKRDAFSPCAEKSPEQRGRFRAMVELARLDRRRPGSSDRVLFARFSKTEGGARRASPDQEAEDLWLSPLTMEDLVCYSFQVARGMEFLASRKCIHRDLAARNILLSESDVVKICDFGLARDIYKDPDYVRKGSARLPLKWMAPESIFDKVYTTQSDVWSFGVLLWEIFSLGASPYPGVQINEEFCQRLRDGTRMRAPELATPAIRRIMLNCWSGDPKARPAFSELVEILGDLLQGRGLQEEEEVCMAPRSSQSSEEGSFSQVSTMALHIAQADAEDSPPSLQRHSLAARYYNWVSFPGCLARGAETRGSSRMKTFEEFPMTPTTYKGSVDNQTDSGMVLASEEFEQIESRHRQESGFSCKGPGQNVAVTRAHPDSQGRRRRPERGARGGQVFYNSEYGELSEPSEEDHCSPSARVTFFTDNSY
T1 sequence (Q07912 whole entry): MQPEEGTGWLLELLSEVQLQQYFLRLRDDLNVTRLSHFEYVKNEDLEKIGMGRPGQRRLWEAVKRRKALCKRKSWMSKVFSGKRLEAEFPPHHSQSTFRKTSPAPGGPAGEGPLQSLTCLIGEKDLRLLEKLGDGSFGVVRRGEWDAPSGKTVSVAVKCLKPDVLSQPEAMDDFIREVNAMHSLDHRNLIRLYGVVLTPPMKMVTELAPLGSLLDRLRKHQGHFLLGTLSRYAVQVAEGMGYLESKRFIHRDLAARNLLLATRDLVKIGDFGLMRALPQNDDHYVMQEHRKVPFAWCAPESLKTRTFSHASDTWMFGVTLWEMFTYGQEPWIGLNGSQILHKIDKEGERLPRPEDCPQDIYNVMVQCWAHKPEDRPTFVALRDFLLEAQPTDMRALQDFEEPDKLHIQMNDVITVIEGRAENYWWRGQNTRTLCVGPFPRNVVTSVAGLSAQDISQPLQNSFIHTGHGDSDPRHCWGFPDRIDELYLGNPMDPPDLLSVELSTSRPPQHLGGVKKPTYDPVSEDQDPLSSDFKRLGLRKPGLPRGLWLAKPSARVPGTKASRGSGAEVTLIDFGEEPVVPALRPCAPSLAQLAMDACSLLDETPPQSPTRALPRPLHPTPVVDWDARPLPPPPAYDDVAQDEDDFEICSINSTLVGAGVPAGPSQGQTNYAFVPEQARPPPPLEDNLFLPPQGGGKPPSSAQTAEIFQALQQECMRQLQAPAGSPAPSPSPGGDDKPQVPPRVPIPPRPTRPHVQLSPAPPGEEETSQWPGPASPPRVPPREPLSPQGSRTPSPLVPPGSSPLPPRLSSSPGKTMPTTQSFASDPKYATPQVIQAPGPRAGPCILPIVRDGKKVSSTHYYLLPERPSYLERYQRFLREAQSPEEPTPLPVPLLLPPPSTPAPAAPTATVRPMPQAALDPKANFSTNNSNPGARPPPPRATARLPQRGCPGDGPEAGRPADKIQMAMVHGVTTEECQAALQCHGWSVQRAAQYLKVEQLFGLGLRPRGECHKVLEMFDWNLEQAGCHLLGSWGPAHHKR

For the molecule `CC#CC(=O)N1CCC[C@H]1c1nc(-c2ccc(C(=O)Nc3ccccn3)cc2)c2c(N)nccn12` [acalabrutinib], the “Percentage inhibition of kinase enzyme activity” value (from here on “Percentage inhibition”) at ACK is reported as 14.06%; at EPHB3, 1.64%; on FLT4, 1.41%; at BRSK2, -10.15%; on DYRK3 it was 0.35%; on p38δ, -1.74%. The “Percentage inhibition” value on EGFR is 19.39%.

In general, inhibition refers to the percentage by which the read-out fell short of the control. For `COc1ccc(F)cc1C(=O)NCc1ccc(-c2nn([C@@H](C)C(F)(F)F)c(N)c2C(N)=O)cc1` [pirtobrutinib], the “Percentage inhibition” value on ACK is 13.05%; on EPHB3, 34.88%; at FLT4, 4.92%; on BRSK2, 7.17%; on DYRK3, 7.54%; at p38δ, -1.92%. Further, the “Percentage inhibition” value at EGFR was determined as 85.26%. Further, the inhibition at 1 µM at EGFR (read-out: Inhibition of EGFR) is above 75%.

`C=CC(=O)N1CCC[C@@H](n2nc(-c3ccc(Oc4ccccc4)cc3)c3c(N)ncnc32)C1` [ibrutinib]: the “Percentage inhibition” value at ACK was 72.74%; on EPHB3 it was 2.93%; at FLT4 it was 90.82%; at BRSK2 it was 15.84%; at DYRK3, -3.93%; on p38δ it was -3.68%.

For `O=C(c1ccc(Oc2ccccc2)cc1Cl)c1c[nH]c2ncnc(N[C@@H]3CC[C@@H](CO)OC3)c12` [nemtabrutinib], the “Percentage inhibition” value at ACK is recorded as 98.62%; on EPHB3 it was 73.92%; at FLT4, 90.70%; on BRSK2, 15.84%; at DYRK3, -5.63%; on p38δ, -5.79%. Moreover, the “Percentage inhibition” value on EGFR turned out to be 99.77%.

Take `C=CC(=O)N1CCC([C@@H]2CCNc3c(C(N)=O)c(-c4ccc(Oc5ccccc5)cc4)nn32)CC1` [zanubrutinib]: the “Percentage inhibition” value on EPHB3 is -2.82%; at FLT4, -6.85%.
